Experimental data published in ChEMBL document CHEMBL1201862, “PubChem BioAssay data set” (2004).
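Briefly, cells in 96-well plates were exposed to five compound concentrations for 48 h, and endpoints were estimated by linear interpolation. GI50 = concentration required for 50% inhibition of growth.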 Activity calls are given as the source filed them. No stated cut-off is given here; in the data, active = GI50 up to about 1.1 µM and inactive = higher.

How the values were obtained:
Assay in all cases: growth of human tumour cells (NCI), 48 h
[1] = system: UACC-257
[2] = system: A549
[3] = system: SR
[4] = system: SN12C
[5] = system: CAKI-1
[6] = system: EKVX
[7] = system: LXFL 529
[8] = system: RXF 393
[9] = system: SF-539
[10] = system: SK-MEL-2
[11] = system: RPMI-8226
[12] = system: XF498
[13] = system: HCT-116
[14] = system: HCC 2998
[15] = system: HCT-15
[16] = system: DMS-273
[17] = system: SNB-75
[18] = system: NCI-H522
[19] = system: SW-620
[20] = system: COLO 205
[21] = system: M19-MEL
[22] = system: LOX IMVI
[23] = system: SF-295
[24] = system: 786-0
[25] = system: DMS-114
[26] = system: HOP-92
[27] = system: IGROV-1
[28] = system: CCRF-CEM
[29] = system: NCI-H23
[30] = system: MOLT-4
[31] = system: U-251
[32] = system: SF-268
[33] = system: RXF 631
[34] = system: Malme-3M
[35] = system: UO-31
[36] = system: KM12
[37] = system: KM-20L2
[38] = system: OVCAR-5
[39] = system: HL-60
[40] = system: NCI-H460
[41] = system: SK-OV-3
[42] = system: SK-MEL-5
[43] = system: DLD-1
[44] = system: K562
[45] = system: SK-MEL-28
[46] = system: OVCAR-4
[47] = system: HT-29
[48] = system: NCI-H226
[49] = system: UACC-62
[50] = system: SNB-19
[51] = system: TK-10
[52] = system: A498
[53] = system: OVCAR-8
[54] = system: ACHN
[55] = system: M14
[56] = system: HOP-62
[57] = system: OVCAR-3

O=C(O)c1nccnc1C(=O)O
GI50 [1]: > 100 µM (inactive) | GI50 [2]: > 100 µM (inactive) | GI50 [3]: > 100 µM (inactive) | GI50 [4]: > 100 µM (inactive) | GI50 [5]: > 100 µM (inactive) | GI50 [6]: > 100 µM (inactive) | GI50 [7]: > 100 µM (inactive) | GI50 [8]: > 100 µM (inactive) | GI50 [9]: > 100 µM (inactive) | GI50 [10]: > 100 µM (inactive) | GI50 [11]: > 100 µM (inactive) | GI50 [12]: > 100 µM (inactive) | GI50 [13]: > 100 µM (inactive) | GI50 [14]: > 100 µM (inactive) | GI50 [15]: > 100 µM | GI50 [16]: > 100 µM (inactive) | GI50 [17]: > 100 µM (inactive) | GI50 [18]: > 100 µM (inactive) | GI50 [19]: > 100 µM (inactive) | GI50 [20]: > 100 µM (inactive) | GI50 [21]: > 100 µM (inactive) | GI50 [22]: > 100 µM (inactive) | GI50 [23]: > 100 µM (inactive) | GI50 [24]: > 100 µM (inactive) | GI50 [25]: > 100 µM (inactive) | GI50 [26]: > 100 µM (inactive) | GI50 [27]: > 100 µM (inactive) | GI50 [28]: > 100 µM (inactive) | GI50 [29]: > 100 µM (inactive) | GI50 [30]: > 100 µM (inactive) | GI50 [31]: > 100 µM (inactive) | GI50 [32]: > 100 µM (inactive) | GI50 [33]: > 100 µM (inactive) | GI50 [34]: > 100 µM (inactive) | GI50 [35]: > 100 µM (inactive) | GI50 [36]: > 100 µM (inactive) | GI50 [37]: > 100 µM (inactive) | GI50 [38]: > 100 µM (inactive) | GI50 [39]: > 100 µM (inactive) | GI50 [40]: > 100 µM (inactive) | GI50 [41]: > 100 µM (inactive) | GI50 [42]: > 100 µM (inactive) | GI50 [43]: > 100 µM (inactive) | GI50 [44]: > 100 µM (inactive) | GI50 [45]: > 100 µM (inactive) | GI50 [46]: > 100 µM (inactive) | GI50 [47]: > 100 µM (inactive) | GI50 [48]: > 100 µM (inactive) | GI50 [49]: > 100 µM (inactive) | GI50 [50]: > 100 µM (inactive) | GI50 [51]: > 100 µM (inactive)

CC(=O)O[C@H]1CC[C@@]2(C)C(=CC[C@@H]3C2CC[C@]2(C)Nc4oncc4CC32)C1 (some centres undefined)
GI50 [1]: 31.7 µM (inactive) | GI50 [2]: 28.4 µM (inactive) | GI50 [5]: 31.3 µM (inactive) | GI50 [6]: > 100 µM (inactive) | GI50 [7]: 13 µM (inactive) | GI50 [8]: 38.8 µM (inactive) | GI50 [9]: 44.9 µM (inactive) | GI50 [10]: 44.5 µM (inactive) | GI50 [52]: 40.6 µM (inactive) | GI50 [11]: 16.9 µM (inactive) | GI50 [53]: 34.6 µM (inactive) | GI50 [12]: 31.5 µM (inactive) | GI50 [13]: 15.5 µM (inactive) | GI50 [14]: > 100 µM (inactive) | GI50 [15]: 33 µM | GI50 [16]: 26.9 µM (inactive) | GI50 [17]: 24.2 µM (inactive) | GI50 [19]: 43.3 µM (inactive) | GI50 [21]: 28.5 µM (inactive) | GI50 [23]: 32.6 µM (inactive) | GI50 [24]: > 100 µM (inactive) | GI50 [27]: 28.1 µM (inactive) | GI50 [28]: 4.85 µM (inactive) | GI50 [29]: 44 µM (inactive) | GI50 [30]: 10.7 µM (inactive) | GI50 [31]: 37.4 µM (inactive) | GI50 [33]: 33.5 µM (inactive) | GI50 [34]: 25.3 µM (inactive) | GI50 [35]: 18.3 µM (inactive) | GI50 [36]: 22.6 µM (inactive) | GI50 [37]: 90.6 µM (inactive) | GI50 [38]: > 100 µM (inactive) | GI50 [39]: 11.7 µM (inactive) | GI50 [40]: 20.3 µM (inactive) | GI50 [54]: 25.6 µM (inactive) | GI50 [41]: 96.6 µM (inactive) | GI50 [42]: 17.8 µM (inactive) | GI50 [43]: 46 µM (inactive) | GI50 [44]: 6.68 µM (inactive) | GI50 [45]: 37.2 µM (inactive) | GI50 [46]: 16.8 µM (inactive) | GI50 [47]: 30.1 µM (inactive) | GI50 [55]: 31.8 µM (inactive) | GI50 [56]: 49.2 µM (inactive) | GI50 [48]: 15 µM (inactive) | GI50 [49]: 27.5 µM (inactive) | GI50 [57]: 16.3 µM (inactive) | GI50 [51]: 49.2 µM (inactive)
